Some results are limits rather than exact numbers.

Data set [1] is described as follows: Cytotoxicity against dog MDCK cells by MTT assay. In kind it is toxicity, cell-based, Canis lupus familiaris. A general note: Tetrazolium dyes change colour on reduction, which living cells bring about.
In data set [2] the test system is Influenza A virus. As to the kind of experiment: Antiviral activity against Influenza A virus A/WSN/33(H1N1) infected in HEK293T cells assessed as inhibition of viral replication at 50 uM by Gaussia luciferase assay. In kind it is functional. The note with it: HEK-293T.
A short description of data set [3]: Selectivity index, ratio of CC50 for cytotoxicity against dog MDCK cells to IC50 for antiviral activity against Influenza A virus A/WSN/33(H1N1) infected in HEK293T cells. In kind it is toxicity, cell-based. The note with it: read-out: Selectivity Index.
The test system of data set [4] is Influenza A virus. Description: Antiviral activity against Influenza A virus A/WSN/33(H1N1) infected in HEK293T cells by Gaussia luciferase assay. Conditions: HEK-293T. In kind it is functional, organism-based.

Consider `O=C1/C=C/CCc2ccc(O)c(c2)-c2cc(ccc2O)C[C@H]1O`, for which the CC50 (in general, the concentration that lowers cell viability or growth by half) at 48 h in data set [1] is greater than 100 µM. Moreover, the inhibition – broadly, the change of the read-out against control, counted positive when it falls – at 50 µM in the data set with Influenza A virus [2] was found to be 60%. In data set [3], the selectivity ratio is greater than 12. In the data set on Influenza A virus [4], the IC50 – broadly, the concentration that inhibits the measured activity by half – came out at 8.64 µM.

For the origin of these results see ChEMBL document CHEMBL5137116, “Discovery of Cyclic Diarylheptanoids as Inhibitors against Influenza A Virus from the Roots of Casuarina equisetifolia” (J Nat Prod, 2022).
